Where two headings read alike, the source gives them in different places.

Assay [1] concerns the target T1, PKA (Bos taurus, UniProt P00517). Particulars: cited from earlier work.
For assay [2], the target named is T1, PKA. In words: AuNPs/Fc-peptide electrochemical. As to conditions: thiolated IP20/MCH gold electrode; Fc-peptide 4 µM or AuNPs 2.4 nM.
A short description of assay [3]: Aggregation of unmodified AuNPs by peptide. It counts as physicochemical. Particulars: AuNPs 2.4 nM, IP20 5 µM, PKA (where present) 500 U/mL; UV-Vis, TEM.
Setting [4] is: substrate/ATP, Biotinylated antiphosphoserine antibody/SA-AuNPs-HRP, ref [19].
Where [5] appears, read: substrate/ATP-S, AuNPs/MWNTs, ref [30].
Where [6] appears, read: substrate/ATP, Zr^4+-DNA-AuNPs network, ref [22].
Where [7] appears, read: substrate/ATP, Fe^3+/H2O2, ref [20].

In the case of CALRRASLGW, in assay [1] (setting [4]), the Detection limit is listed as 1 mU/mL and the Linear range is 1–10 mU/mL.

Regarding CGGALRRASLG, the Linear range in assay [1] (substrate/ATP, Phos-tag-biotin/avidin-HRP, ref [23]) is given as 500–25,000 mU/mL.

Consider CLRRASIG, for which, in assay [1] (setting [5]), the Detection limit is listed as 90 mU/mL and the Linear range is listed as 100–1,000 mU/mL.

Regarding CLRRASLG, in assay [1] (setting [6]), the Detection limit is 30 mU/mL and the Linear range was 30–40,000 mU/mL.

With Fc-LRRASLG, the Detection limit in assay [1] (substrate/ATP, bis(Zn^2+-dipicolylamine), ref [21]) is listed as 100 mU/mL.

For the substance FcCH2CO-RTGRRNAIHD [Fc-peptide], the “DPV signal/peak, single component only (Fc-peptide alone or AuNPs alone)” value in assay [2] is given as “no DPV peak was observed”.

On to LRRASLG, for which the Detection limit in assay [1] (substrate/biotin-ATP, SA-AuNPs, ref [27]) is reported as 10,000 mU/mL.

LRRASLGGGGC: in assay [1] (setting [7]), the Detection limit was 100 mU/mL and the Linear range is on record as 100–50,000 mU/mL.

RTGRRNAIHD: in assay [3], the “effect on AuNPs aggregation / color change” value was “responsible for triggering the aggregation of AuNPs”.

These data come from PMC5352234 (International Journal of Nanomedicine, 2017).
